Data on nine molecules can be found in patent publication US7863446B2, “Heterocycles” (Orchid Research Laboratories Limited, priority 2006, dated 2011).

In data set [1] the target is purified recombinant COX-1 (Homo sapiens, UniProt P23219). The data set can be described thus: COX-1 enzyme based assay. Format: biochemical. The conditions noted are these: NA = No activity, read-out: % Inhibition in rEnzyme Assay COX-1. The method in brief:
(§1)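 Purified recombinant enzyme converted arachidonic acid to PGH2 at 37° C with or without test compound; stopped with 1M HCl after 2 minutes. PGH2 reduced by SnCl2 to PGF2α, quantified by enzyme immunoassay; inhibition inferred from reduced prostanoid.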

Data set [2] has as its target T1, purified recombinant COX-2 (Homo sapiens, UniProt P35354).
T1 sequence (P35354 18-604): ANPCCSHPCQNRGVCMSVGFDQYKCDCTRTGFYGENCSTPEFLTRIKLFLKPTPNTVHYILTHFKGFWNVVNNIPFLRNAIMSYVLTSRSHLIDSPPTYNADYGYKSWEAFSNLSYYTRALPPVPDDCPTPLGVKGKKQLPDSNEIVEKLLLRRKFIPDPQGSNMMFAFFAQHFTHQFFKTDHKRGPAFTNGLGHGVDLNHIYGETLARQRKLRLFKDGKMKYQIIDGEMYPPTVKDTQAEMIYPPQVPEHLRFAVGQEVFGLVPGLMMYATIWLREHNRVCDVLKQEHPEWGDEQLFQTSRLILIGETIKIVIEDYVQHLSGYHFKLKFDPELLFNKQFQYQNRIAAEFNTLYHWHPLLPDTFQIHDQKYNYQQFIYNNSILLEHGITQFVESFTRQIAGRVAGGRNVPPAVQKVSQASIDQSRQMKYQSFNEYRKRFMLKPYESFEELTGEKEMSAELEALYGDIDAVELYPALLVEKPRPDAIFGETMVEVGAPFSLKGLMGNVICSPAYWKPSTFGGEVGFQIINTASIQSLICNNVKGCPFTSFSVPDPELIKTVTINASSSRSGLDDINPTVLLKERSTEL
The experiment in a line: COX-2 enzyme based assay. Format: biochemical. The following applies: NA = No activity, read-out: % Inhibition in rEnzyme Assay COX-2. An outline of the steps: as §1

Another data set relates to DU-145. The data set can be described thus: Anti-cancer screen (MTT), DU-145. In kind it is cell-based. The following applies: Homo sapiens, DU-145, 48 hours.
In the next data set the test system is HCT-116. The experiment in a line: Anti-cancer screen (MTT), HCT-116. Format: cell-based. The following applies: Homo sapiens, HCT-116, 48 hours. On the procedure: (§2) Experimental drugs are screened for anti-cancer activity in three cell lines for their GI50, TG1 and LC50 values (using 5 concentrations for each compound). The cell lines are maintained in DMEM containing 10% fetal bovine serum. 96 well microtiter plates are inoculated with cells in […] for 24 hours at 37° C., 5% CO2, 95% air and 100% relative humidity. 5000 HCT116 cells/well, 5000 NCIH460 cells/well, 10000 U251 cells/well and 5000 MDAMB231 cells/well are plated. A separate plate with these cell lines is also inoculated to determine cell viability before the addition of the compounds (T0).
(§3) Addition of Experimental Drugs
(§4) Following 24-hour incubation, experimental drugs are added to the 96 well plates. Each plate contains one of the above cell lines and the following in triplicate: 5 different concentrations (0.01, 0.1, 1, 10 and 100 μM) of 4 different compounds, appropriate dilutions of a cytotoxic standard and control (untreated) wells. Compounds are dissolved in dimethylsulfoxide (DMSO) to make 20 mM stock solutions, on the day of drug addition and frozen at −20° C. Serial dilutions of these 20 mM stock solutions are made in complete growth medium such that 100 μL of these drug solutions in medium, of final concentrations equaling 0.01, 0.1, 1, 10 and 100 μM can be added to the cells in triplicate. Standard drugs whose anti-cancer activity has been well documented and which are regularly used are doxorubicin and SAHA.
(§5) Cells are incubated with compounds for 48 hours followed by the addition of 10 μL 3-(4,5-Dimethyl-2-thiazolyl)-2,5-diphenyl-2H-tetrazolium (MTT) solution per well and a subsequent incubation at 37° C., 5% CO2, 95% air and 100% relative humidity, protected from light. After 4 hours, well contents are aspirated carefully followed by addition of 150 μL DMSO per well. Plates are agitated to ensure solution of the formazan crystals in DMSO and absorbance read at 570 nm.
(§6) Calculation of GI50, TGI and LC50
(§7) Percent growth is calculated for each compound's concentration relative to the control and zero measurement wells (T0; viability right before compound addition).
(§8) If a test well's O.D. value is greater than the T0 measurement for that cell line % Growth=(test−zero)/(control−zero)×100
(§9) If a test well's O.D. value is lower than the T0 measurement for that cell line, then % Growth=(test−zero)/zero×100 Plotting % growth versus experimental drug concentration, GI50 is the concentration required to decrease % growth by 50%; TGI is the concentration required to decrease % growth by 100% and LC50 is the concentration required to decrease % growth by 150%.

For a further data set, the system named is NCI-H460. The experiment in a line: Anti-cancer screen (MTT), NCI-H460. Format: cell-based. The conditions noted are these: Homo sapiens, NCI-H460, 48 hours. On the procedure: as §2, §3, §4, §5, §6, §7, §8, §9
A further data set concerns TNF-α. The data set can be described thus: In vitro measurement of TNF-α in human PBMC (LPS stimulated). Format: cell-based. The following applies: for inhibition at 1 µM: NA = No activity, read-out: TNF-α Inhibition (%) at Conc. (1 μM); for inhibition at 10 µM: read-out: TNF-α Inhibition (%) at Conc. (10 μM). An outline of the steps:
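Healthy-volunteer PBMC (0.5 million/well) in RPMI were pre-incubated with compound 15 min at 37 °C. They were then stimulated with E. coli B4 LPS 1 μg/ml for 18 h at 37 °C, 5% CO2. TNF-α in culture medium was measured by ELISA.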

Another data set relates to Male wistar rats. The data set can be described thus: Carrageenan induced paw edema test in rat. In kind it is in vivo. The conditions noted are these: oral, 3 hours after carrageenan. On the procedure:
Carrageenan Induced Paw Edema Test in Rat
The carrageenan paw edema test was performed as described by Winter et al (Proc. Soc. Exp. Biol. Med, 111, 544, 1962). Male wistar rats were selected with body weights equivalent within each group. The rats were fasted for 18 hours with free access to water. The rats were dosed orally with the test compound suspended in the vehicle containing 0.25% carboxymethylcellulose and 0.5% Tween 80. The control rats were administered with vehicle alone. After an hour, the rats were injected with 0.1 ml of 1% Carrageenan solution in 0.9% saline into the sub-plantar surface of the right hind paw. Paw volume was measured using digital plethysmograph before and after 3 hours of carrageenan injection. The average of foot swelling in drug treated animals was compared with that of the control animals. Anti-inflammatory activity was expressed as the percentage inhibition of edema compared with control group [Arzneim-Forsch/Drug Res., 43 (I), 1, 44-50, 1993; Representative results of edema inhibition are shown in the Table VI.
(The carrageenan paw model is a standard test of acute inflammation.)

For a further data set, the system named is Animals (male wistar). The experiment in a line: Ulcerogenic potential. The following applies: oral, 4 hours after administration. Format: in vivo. As for the experimental part:
In order to evaluate the compound's role on the ulcer formation, the animals were sacrificed and the stomach was taken out and flushed with 1% formalin. Animals (male wistar. 200 g) were fasted for 18 hours with free access to water and the test compounds were suspended in 0.5% Tween 80 and 0.25% CMC (carboxymethylcellulose) solution to make a uniform suspension. After 4 hours of oral administration of test compounds, all the animals were sacrificed by cervical dislocation. The stomach was dissected carefully and filled up with a sterile saline solution and embedded in 6% formalin solution. […] The test compound treated groups were compared with the vehicle treated groups. […]

The next data set has as its system PDE4. The experiment in a line: PDE4 activity. In kind it is biochemical. The following applies: source Human U937 cells. As for the experimental part:
PDE4 Activity PDE4 inhibition was measured by following a literature assay procedure (Cortizo J et al., Br J Pharmacol., 1993, 108: 562-568. The assay method involves the following conditions. • Source: Human U937 cells • Substrate: 1.01 μM [^3H] camp+camp • Vehicle: 1% DMSO • Pre-Incubation Time/Temperature: 15 minutes at 25° C. • Incubation Time/Temperature. 20 minutes at 25° C. • Incubation buffer: 50 mM Tris-HCl, pH 7.5, 5 mM MgCl2 • Quantitation method: Quantitation of [^3H] Adenosine • Significance criteria: >50% of max stimulation or inhibition The results are tabulated as shown in the table XIII.

The subject of another data set is IL-6. The experiment in a line: In vitro measurement of IL-6 in human PBMC (LPS stimulated). Format: cell-based. The following applies: 10 μM, read-out: IL-6 Inhibition (%) Conc. (10 μM). On the procedure: In Vitro Measurement of Interleukin-6(IL-6)
This assay determins the effect of test compounds on the production of IL-6 in human PBMC (Physiol. Res. 52: 593-598, 2003). Compounds were tested for their ability to inhibit the activity of IL-6 in human PBMC. PBMC were isolated from blood using BD Vacutainer CPT™ Cell preparation tube (BD Bio Science) and suspended in RPMI medium. The test compounds were pre-incubated with PBMC (0.5 million/incubation well) for 15 minutes at 37° C. and then stimulated with Lipopolysaccharide (Escherichia coli: B4; 1 μg/ml) for 18 hours at 37° C. in 5% CO2. The levels of IL-6 in cell culture medium were estimated using enzyme-linked immunosorbent assay performed in a 96 well format as per the procedure of the manufacturer (Cayman Chemical, Ann Arbor, USA).

In another data set the test system is IL-12. The experiment in a line: IL-12 inhibition. In kind it is cell-based.

The structures appear in SMILES notation.

purified recombinant COX-1, sequence (P23219 24-599): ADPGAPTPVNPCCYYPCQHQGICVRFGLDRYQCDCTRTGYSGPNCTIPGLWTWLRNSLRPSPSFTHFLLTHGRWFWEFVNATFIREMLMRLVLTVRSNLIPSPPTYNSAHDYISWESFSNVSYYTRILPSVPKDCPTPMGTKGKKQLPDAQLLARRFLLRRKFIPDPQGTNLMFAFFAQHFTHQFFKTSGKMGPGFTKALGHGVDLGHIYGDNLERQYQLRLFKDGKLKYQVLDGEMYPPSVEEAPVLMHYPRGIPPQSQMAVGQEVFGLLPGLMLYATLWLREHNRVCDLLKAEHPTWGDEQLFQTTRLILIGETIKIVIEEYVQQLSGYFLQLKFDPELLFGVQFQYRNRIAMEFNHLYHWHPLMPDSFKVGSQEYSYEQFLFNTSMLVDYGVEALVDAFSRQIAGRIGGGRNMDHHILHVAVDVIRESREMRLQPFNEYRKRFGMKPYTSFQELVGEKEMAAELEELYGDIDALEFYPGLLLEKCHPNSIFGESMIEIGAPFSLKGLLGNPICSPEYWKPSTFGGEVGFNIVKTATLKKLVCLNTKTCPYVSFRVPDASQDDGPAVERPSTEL

For the molecule `CNS(=O)(=O)c1ccc(-c2c(N)nc(C(F)(F)F)nc2-c2ccc(S(C)(=O)=O)cc2)cc1` [Example 2, 4-{4-Amino-6-[4-(methylsulfonyl)phenyl]-2-(trifluoromethyl)pyrimidin-5-yl}-N-methylbenzenesulfonamide], the inhibition at 1 µM was determined as 33.8% in data set [1] (1 μM) and 17.3% in [2] (1 μM). For the same molecule, the inhibition at 10 µM is 50.4% in data set [1] (10 μM) and 48.9% in data set [2] (10 μM). Besides, the GI50 was determined as 3.5 µM with DU-145, 2.5 µM in the data set on HCT-116 and 8.5 µM in the data set with NCI-H460.

In the case of `CNc1nc(C(F)(F)F)nc(-c2ccc(S(C)(=O)=O)cc2)c1-c1ccc(S(=O)(=O)NC)cc1` [Example 5, 4-{4-(Methylamino)-6-[4-(methylsulfonyl)phenyl]-2-(trifluoromethyl)pyrimidin-5-yl}-N-methylbenzenesulfonamide], in the data set with TNF-α, the inhibition at 1 µM was 35.9% and the inhibition at 10 µM turned out to be 56.3%. Besides, the “Inhibition of edema (%) at 5 mg/kg” value in the data set on Male wistar rats was found to be 14.5%. In the data set on Animals (male wistar), the “Ulcer incidence at 5 mg/kg” value is on record as “Nil”.

Consider `CS(=O)(=O)c1ccc(-c2nc(C(F)(F)F)nc(N3CCN(C(=O)c4ccc([N+](=O)[O-])o4)CC3)c2-c2ccccc2)cc1` [Example 38, 6-[4-(Methylsulfonyl)phenyl]-4-[4-(5-nitro-2-furoyl)piperazin-1-yl]-5-phenyl-2-(trifluoromethyl)pyrimidine], for which the GI50 with DU-145 is 4 µM; in the data set on HCT-116 it was 6 µM; with NCI-H460, 3.75 µM.

Consider `NS(=O)(=O)c1cccc(-c2c(-c3ccc(F)cc3)nc(C(F)(F)F)nc2N2CCN(C(=O)C(F)(F)F)CC2)c1` [Example 108, 3-{6-(4-Fluorophenyl)-4-[4-(trifluoroacetyl)piperazin-1-yl]-2-(trifluoromethyl)pyrimidin-5-yl}benzenesulfonamide], for which the “PDE4 inhibition at 10 μM (%)” value with PDE4 was found to be 90%.

For the molecule `CS(=O)(=O)c1ccc(-c2nc(C(F)(F)F)nc(N3CCN(S(=O)(=O)c4ccc(F)cc4Cl)CC3)c2-c2ccccc2)cc1` [Example 157, 4-{4-[(2-Chloro-4-fluorophenyl)sulfonyl]piperazin-1-yl}-6-(4-methylsulfonylphenyl)-5-phenyl-2-(trifluoromethyl)pyrimidine], the values for the inhibition at 1 µM with TNF-α and in the data set on IL-12 (read-out: IL-12 Inhibition (%) Conc. (1 μM)) were 33.5% and 69%, respectively. Moreover, the inhibition at 10 µM in the data set with TNF-α turned out to be 91.3%; in the data set with IL-6, 65.7%; in the data set with IL-12 (read-out: IL-12 Inhibition (%) Conc. (10 μM)) it was 98.3%.

As for `NS(=O)(=O)c1cccc(-c2nc(C(F)(F)F)nc(-n3ccnc3)c2-c2ccccc2)c1` [Example 166, 3-[4-(1H-imidazol-1-yl)-5-phenyl-2-(trifluoromethyl)pyrimidin-6-yl]benzenesulfonamide], the “PDE4 inhibition at 10 μM (%)” value in the data set with PDE4 was 82%.

With `NS(=O)(=O)c1cccc(-c2c(-c3ccccc3)nc(C(F)(F)F)nc2N2CCN(C(=O)C(F)(F)F)CC2)c1` [Example 172, 3-{6-Phenyl-4-[4-(trifluoroacetyl)piperazin-1-yl]-2-(trifluoromethyl)pyrimidin-5-yl}benzenesulfonamide], in the data set with PDE4, the “PDE4 inhibition at 10 μM (%)” value turned out to be 87%.

With `Fc1ccc(-c2nc(C(F)(F)F)nc(NC3CC3)c2-c2ccccc2)cc1` [Example 174, N-Cyclopropyl-6-(4-fluorophenyl)-5-phenyl-2-(trifluoromethyl)pyrimidin-4-amine], the “PDE4 inhibition at 10 μM (%)” value in the data set with PDE4 came out at 88%.

Take `NS(=O)(=O)c1cccc(-c2c(-c3ccccc3)nc(C(F)(F)F)nc2N2CCC(=O)CC2)c1` [Example 178, 3-[6-Phenyl-4-(4-oxopiperidin-1-yl)-2-(trifluoromethyl)pyrimidin-5-yl]benzenesulfonamide]: the “PDE4 inhibition at 10 μM (%)” value with PDE4 is listed as 84%.

What is called inhibition is the share of the control response that was lost under treatment. As a reminder, the GI50 is the concentration giving 50% growth inhibition. Read a high GI50 as less potent growth inhibition.
